{
  "source": "patent US9303045B2",
  "about": "“5-HT3 receptor antagonists” (Takeda Pharmaceutical Company Limited, priority 2013, dated 2016)",
  "key": {"[1]": {"tested_on": "PCP-induced cognitive deficits", "experiment": "Rodent novel object recognition (NOR) assay in phencyclidine-induced cognitive deficits modeling schizophrenia", "format": "in vivo, rat", "parameters": "key to time spent exploring novel object (TN) / time spent exploring familiar object (TF): exploration time in seconds", "settings": "PCP-treated rats, 2 h ITI", "description": "Rodent Novel Object Recognition (NOR) Assay in Phencyclidine-Induced Cognitive Deficits Modeling Schizophrenia\nThe aim of this study was to investigate the ability of the compounds of the invention to improve subchronic PCP-induced impairment in cognition memory using the NOR task in the rat, a paradigm of relevance to cognition in schizophrenia. Adult male Sprague-Dawley rats (250-350 g; Harlan, USA) were used for the experiments Animal were acclimated to the facility for 7 days prior to experimentation. Seven groups of 14 animals per group were used for the experiment. One group of animals received vehicle (0.9% saline twice daily) and the remaining six groups received PCP (2.5 mg/kg, s.c. twice daily) for 7 days, followed by 5-days drug free. On the test day, the animals were allowed to acclimate to the testing room for 30 min prior to initiation of experiments. Experiments were carried out in a white plexiglass chamber, designated as experimental arena. The arena was placed in a dark experimental room that was illuminated by a halogen lamp, providing a dim light to the arena.\nAnimals were placed in the arena for a 5 minute period to freely explore the test chamber in the absence of objects (habituation). Animals were then returned to their home cage immediately upon completion of habituation for a 120 min period. (1R,3R,5S)-8-Methyl-8-azabicyclo[3.2.1]octan-3-yl 1-(2,2,2-trifluoroethyl)-1H-indole-3-carboxylate (0.1, 1, 10 mg/kg s.c.), or vehicle (veh, saline) was administered 120 min prior to T1 and galantamine (5 mg/kg, i.p.) was administered 30 min prior to T1. Animals were returned to the arena which contained two identical objects (plastic balls) placed at one end of the arena (acquisition, T1), and allowed to explore for a 5 min period. The time spent exploring the two objects was recorded Animals were once again returned to the home cage for a period of 120 min (ITI).\nITI was followed by the retention phase (T2) where one of the objects presented in the first trial was replaced by a novel object and animals were allowed to explore for an additional 5 min period. Again, the time spent exploring the two objects was recorded.\nFor the retention phase, the differences between the time spent exploring the familiar object and the novel object were examined. All sessions were recorded and scored blindly for the time exploring objects. Exploration is defined as touching the object or directing nose towards object at a distance less that 2 cm. A minimal exploration criterion was used such that only animals with exploration time of greater than 5 seconds per object were included.\nComparisons of all treatment groups were conducted using a one-way ANOVA followed by a Bonferroni's post hoc test for multiple comparisons."}, "[2]": {"target": "5HT3a receptor expressed in HEK-293T cells (Homo sapiens (Human), UniProt P46098)", "sequence (P46098 24-478)": "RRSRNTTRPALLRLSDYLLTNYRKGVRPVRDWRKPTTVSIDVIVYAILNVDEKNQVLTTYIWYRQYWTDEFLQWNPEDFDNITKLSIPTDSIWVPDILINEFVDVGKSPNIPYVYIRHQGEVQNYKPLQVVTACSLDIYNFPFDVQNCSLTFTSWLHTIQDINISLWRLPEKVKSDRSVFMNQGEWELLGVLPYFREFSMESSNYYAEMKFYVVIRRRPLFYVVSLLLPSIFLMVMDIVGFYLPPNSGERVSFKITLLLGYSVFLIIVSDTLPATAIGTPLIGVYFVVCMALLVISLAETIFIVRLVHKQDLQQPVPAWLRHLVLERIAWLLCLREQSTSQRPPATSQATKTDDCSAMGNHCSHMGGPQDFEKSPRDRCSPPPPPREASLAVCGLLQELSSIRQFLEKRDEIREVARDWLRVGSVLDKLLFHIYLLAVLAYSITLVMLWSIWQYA", "experiment": "Inhibition of Ca flux activity of 5HT3 in vitro assay", "format": "cell-based", "settings": "calcium flux, 5HT 216 nM, approximate values", "in_short": "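HEK-293T cells transiently transfected with human 5HT3a, loaded 1 hour at 37° C with calcium dye in HBSS/20 mM HEPES, preincubated with compound (10^−7 to 10^−10, half-log) 10 minutes at room temperature.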"}, "[3]": {"settings": "0.1 mg/kg s.c. (bracket prints 0.01 mg/kg)"}, "[4]": {"settings": "1 mg/kg s.c. (bracket prints 0.1 mg/kg)"}},
  "data": [
    {"compound": "CN1[C@@H]2CC[C@H]1C[C@@H](OC(=O)c1cn(CC(F)(F)F)c3ccccc13)C2", "values": [
      {"measurement": "time spent exploring familiar object (TF)", "setting": "[1]; [3]", "value": "12.5±2.152"},
      {"measurement": "time spent exploring novel object (TN)", "setting": "[1]; [3]", "value": "22.9±3.65"},
      {"measurement": "discrimination between familiar and novel objects", "setting": "[1]; 0.1 mg/kg s.c.", "value": "did not demonstrate a statistically significant discrimination"},
      {"measurement": "time spent exploring familiar object (TF)", "setting": "[1]; [4]", "value": "12.7±1.027"},
      {"measurement": "time spent exploring novel object (TN)", "setting": "[1]; [4]", "value": "25.3±2.51"},
      {"measurement": "discrimination between familiar and novel objects", "setting": "[1]; 1 mg/kg s.c.", "value": "demonstrated a statistically significant discrimination"},
      {"measurement": "discrimination between familiar and novel objects", "setting": "[1]; 10 mg/kg s.c.", "value": "demonstrated a statistically significant discrimination"},
      {"measurement": "time spent exploring familiar object (TF)", "setting": "[1]; 10 mg/kg s.c.", "value": "9.831±1.53"},
      {"measurement": "time spent exploring novel object (TN)", "setting": "[1]; 10 mg/kg s.c.", "value": "22.8±2.48"}
    ]},
    {"compound": "CN1[C@@H]2COC[C@H]1CC(NC(=O)c1cn(-c3ccnnc3)c3ccccc13)C2", "note": "(stereo partly drawn) [Example 190, N-((1R,5S,7S)-9-methyl-3-oxa-9-azabicyclo[3.3.1]nonan-7-yl)-1-(pyridazin-4-yl)-1H-indole-3-carboxamide]", "values": [
      {"measurement": "IC50", "setting": "[2]", "value": 0.75, "unit": "nM"}
    ]},
    {"compound": "COc1ccc2c3c1O[C@H]1C[C@@H](O)C=C[C@@]31CCN(C)C2", "note": "[Galantamine, galantamine, reference compound]", "values": [
      {"measurement": "discrimination between familiar and novel objects", "setting": "[1]; galantamine 5 mg/kg i.p.", "value": "statistically significant discrimination"},
      {"measurement": "time spent exploring familiar object (TF)", "setting": "[1]; galantamine 5 mg/kg i.p.", "value": "11.19±1.376"},
      {"measurement": "time spent exploring novel object (TN)", "setting": "[1]; galantamine 5 mg/kg i.p.", "value": "22.8±2.2"}
    ]},
    {"compound": "(1R,3R,5S)-8-methyl-8-azabicyclo[3.2.1]octan-3-yl 1-(2,2-difluoroethyl)-1H-pyrrolo[2,3-b]pyridine-3-carboxylate 2,2,2-trifluoroacetate [Example 1]", "values": [
      {"measurement": "IC50", "setting": "[2]", "value": 2.13, "unit": "nM"}
    ]},
    {"compound": "(1R,3R,5S)-8-methyl-8-azabicyclo[3.2.1]octan-3-yl 2-chloro-1-(2,2-difluoroethyl)-1H-indole-3-carboxylate 2,2,2-trifluoroacetate [Example 4]", "values": [
      {"measurement": "IC50", "setting": "[2]", "value": 1.4, "unit": "nM"}
    ]},
    {"compound": "(1R,3R,5S)-8-methyl-8-azabicyclo[3.2.1]octan-3-yl 2-chloro-1-(methylsulfonyl)-1H-indole-3-carboxylate 2,2,2-trifluoroacetate [Example 6]", "values": [
      {"measurement": "IC50", "setting": "[2]", "value": 2.33, "unit": "nM"}
    ]},
    {"compound": "(1R,3R,5S)-8-methyl-8-azabicyclo[3.2.1]octan-3-yl 3,4-dihydro-2H-[1,3]oxazino[3,2-a]indole-10-carboxylate 2,2,2-trifluoroacetate [Example 19]", "values": [
      {"measurement": "IC50", "setting": "[2]", "value": 7.72, "unit": "nM"}
    ]},
    {"compound": "(1R,5S,7S)-3-Oxa-9-azabicyclo[3.3.1]nonan-7-yl 1-(2,2-difluoroethyl)-5-fluoro-1H-indole-3-carboxylate 2,2,2-trifluoroacetic acid [Example 13]", "values": [
      {"measurement": "IC50", "setting": "[2]", "value": 0.93, "unit": "nM"}
    ]},
    {"compound": "(1R,5S,7S)-9-methyl-3-oxa-9-azabicyclo[3.3.1]nonan-7-yl 1-(2,2-difluoroethyl)-1H-pyrrolo[2,3-b]pyridine-3-carboxylate 2,2,2-trifluoroacetate [Example 14]", "values": [
      {"measurement": "IC50", "setting": "[2]", "value": 3.71, "unit": "nM"}
    ]},
    {"compound": "(1R,5S,7S)-9-methyl-3-oxa-9-azabicyclo[3.3.1]nonan-7-yl 1-(5-fluoropyrazin-2-yl)-1H-indole-3-carboxylate, 2,2,2-trifluoroacetic acid salt [Example 33]", "values": [
      {"measurement": "IC50", "setting": "[2]", "value": 14.4, "unit": "nM"}
    ]},
    {"compound": "(1R,5S,7S)-9-methyl-3-oxa-9-azabicyclo[3.3.1]nonan-7-yl 1-(isothiazol-3-yl)-1H-indole-3-carboxylate, 2,2,2-trifluoroacetic acid salt [Example 34]", "values": [
      {"measurement": "IC50", "setting": "[2]", "value": 0.74, "unit": "nM"}
    ]},
    {"compound": "(1R,5S,7s)-3-oxa-9- azabicyclo[3.3.1]nonan- 7-yl 1-(isothiazol-3-yl)- 1H-indole-3- carboxamide, 2,2,2- trifluoroacetic acid salt [Example 145]", "values": [
      {"measurement": "IC50", "setting": "[2]", "value": 2.71, "unit": "nM"}
    ]},
    {"compound": "(1R,5S,7s)-3-oxa-9- azabicyclo[3.3.1]nonan- 7-yl 1-(isothiazol-5-yl)- 1H-indole-3- carboxamide, 2,2,2- trifluoroacetic acid salt [Example 155]", "values": [
      {"measurement": "IC50", "setting": "[2]", "value": 1.26, "unit": "nM"}
    ]},
    {"compound": "(1R,5S,7s)-3-oxa-9-azabicyclo[3.3.1]nonan-7-yl 1-(2-cyanophenyl)-1H-indole-3-carboxylate, 2,2,2-trifluoroacetic acid salt [Example 28]", "values": [
      {"measurement": "IC50", "setting": "[2]", "value": 1.08, "unit": "nM"}
    ]},
    {"compound": "(1R,5S,7s)-3-oxa-9-azabicyclo[3.3.1]nonan-7-yl 1-(pyrazin-2-yl)-1H-indole-3-carboxylate, 2,2,2-trifluoroacetic acid salt [Example 27]", "values": [
      {"measurement": "IC50", "setting": "[2]", "value": 0.89, "unit": "nM"}
    ]},
    {"compound": "(1R,5S,7s)-9-methyl-3-oxa-9-azabicyclo[3.3.1]nonan-7-yl 1-(6-fluoropyridazin-3-yl)-1H-indole-3-carboxylate [Example 25]", "values": [
      {"measurement": "IC50", "setting": "[2]", "value": 3.88, "unit": "nM"}
    ]},
    {"compound": "(1R,5S,7s)-9-methyl-3-oxa-9-azabicyclo[3.3.1]nonan-7-yl 1-(6-hydroxypyridazin-3-yl)-1H-indole-3-carboxylate, 2,2,2-trifluoroacetic acid salt [Example 32]", "values": [
      {"measurement": "IC50", "setting": "[2]", "value": 1.38, "unit": "nM"}
    ]},
    {"compound": "N-((1R,5S,7S)-3-oxa-9-azabicyclo[3.3.1]nonan-7-yl)-5-fluoro-1-(2,2,2-trifluoroethyl)-1H-indole-3-carboxamide 2,2,2-trifluoroacetate [Example 17]", "values": [
      {"measurement": "IC50", "setting": "[2]", "value": 4.39, "unit": "nM"}
    ]},
    {"compound": "N-((1R,5S,7S)-3-oxa-9-azabicyclo[3.3.1]nonan-7-yl)-5-fluoro-1-(2,2,2-trifluoroethyl)-1H-indole-3-carboxamide 2,2,2-trifluoroacetic acid [Example 16]", "values": [
      {"measurement": "IC50", "setting": "[2]", "value": 3.25, "unit": "nM"}
    ]},
    {"compound": "N-((1R,5S,7s)-9-methyl-3-oxa-9-azabicyclo[3.3.1]nonan-7-yl)-1-phenyl-1H-indole-3-carboxamide, 2,2,2-trifluoroacetic acid salt [Example 26]", "values": [
      {"measurement": "IC50", "setting": "[2]", "value": 0.54, "unit": "nM"}
    ]}
  ]
}
